From PubChem BioAssay (NCI)
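Interpolation was linear, between the two tested concentrations surrounding the appropriate level; five concentrations were tested over 48 hours in 96-well plates. TGI: concentration producing complete growth inhibition.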

Key:
Test in all cases: NCI anticancer screen, dose series, 48 h
[1] = tested on: 786-0 renal
[2] = tested on: A549 NSCLC
[3] = tested on: ACHN renal
[4] = tested on: CAKI-1 renal
[5] = tested on: CCRF-CEM leukemia
[6] = tested on: COLO 205 colon
[7] = tested on: DLD-1 colon
[8] = tested on: DMS 114 small cell lung
[9] = tested on: EKVX NSCLC
[10] = tested on: HCT-116 colon
[11] = tested on: HCT-15 colon
[12] = tested on: HL-60(TB) leukemia
[13] = tested on: HOP-18 NSCLC
[14] = tested on: HOP-62 NSCLC
[15] = tested on: HOP-92 NSCLC
[16] = tested on: HT29 colon
[17] = tested on: IGROV1 ovarian
[18] = tested on: K-562 leukemia
[19] = tested on: KM12 colon
[20] = tested on: KM20L2 colon
[21] = tested on: LXFL 529 NSCLC
[22] = tested on: M14 melanoma
[23] = tested on: M19-MEL melanoma
[24] = tested on: MALME-3M melanoma
[25] = tested on: MOLT-4 leukemia
[26] = tested on: NCI-H226 lung
[27] = tested on: NCI-H23 lung
[28] = tested on: NCI-H460 lung
[29] = tested on: NCI-H522 lung
[30] = tested on: OVCAR-3 ovarian
[31] = tested on: OVCAR-4 ovarian
[32] = tested on: OVCAR-8 ovarian
[33] = tested on: RPMI-8226 leukemia
[34] = tested on: RXF 393 renal
[35] = tested on: RXF-631 renal
[36] = tested on: SF-268 CNS
[37] = tested on: SF-295 CNS
[38] = tested on: SF-539 CNS
[39] = tested on: SK-MEL-2 melanoma
[40] = tested on: SK-MEL-28 melanoma
[41] = tested on: SK-MEL-5 melanoma
[42] = tested on: SK-OV-3 ovarian
[43] = tested on: SN12C renal
[44] = tested on: SNB-19 CNS
[45] = tested on: SNB-75 CNS
[46] = tested on: SR leukemia
[47] = tested on: SW-620 colon
[48] = tested on: TK-10 renal
[49] = tested on: U251 CNS
[50] = tested on: UACC-257 melanoma
[51] = tested on: UACC-62 melanoma
[52] = tested on: UO-31 renal
[53] = tested on: XF 498 CNS
[54] = tested on: A498 renal
[55] = tested on: DMS 273 small cell lung
[56] = tested on: LOX IMVI melanoma
[57] = tested on: OVCAR-5 ovarian
[58] = tested on: HCC-2998 colon
[59] = tested on: SNB-78 CNS

For `O=C(O)C1=CN=C(C(=O)O)NN1`, the TGI [1] was > 100 µM, the TGI [2] was > 100 µM and the TGI [3] was > 100 µM. For the same compound, the TGI [4] was > 100 µM, the TGI [5] was > 100 µM and the TGI [6] was > 100 µM. The TGI [7] was > 100 µM, the TGI [8] was > 100 µM and the TGI [9] was > 100 µM. The TGI [10] was > 100 µM, the TGI [11] was > 100 µM and the TGI [12] was > 100 µM. The TGI [13] was > 100 µM, the TGI [14] was > 100 µM and the TGI [15] was > 100 µM. For the same compound, the TGI [16] was > 100 µM, the TGI [17] was > 100 µM and the TGI [18] was > 100 µM. For the same compound, the TGI [19] was > 100 µM, the TGI [20] was > 100 µM and the TGI [21] was > 100 µM. For the same compound, the TGI [22] was > 100 µM, the TGI [23] was > 100 µM and the TGI [24] was > 100 µM. For the same compound, the TGI [25] was > 100 µM, the TGI [26] was > 100 µM and the TGI [27] was > 100 µM. The TGI [28] was > 100 µM, the TGI [29] was > 100 µM and the TGI [30] was > 100 µM. For the same compound, the TGI [31] was > 100 µM, the TGI [32] was > 100 µM and the TGI [33] was > 100 µM. The TGI [34] was > 100 µM, the TGI [35] was > 100 µM and the TGI [36] was > 100 µM. For the same compound, the TGI [37] was > 100 µM, the TGI [38] was > 100 µM and the TGI [39] was > 100 µM. For the same compound, the TGI [40] was > 100 µM, the TGI [41] was > 100 µM and the TGI [42] was > 100 µM. The TGI [43] was > 100 µM, the TGI [44] was > 100 µM and the TGI [45] was > 100 µM. The TGI [46] was > 100 µM, the TGI [47] was > 100 µM and the TGI [48] was > 100 µM. For the same compound, the TGI [49] was > 100 µM, the TGI [50] was > 100 µM and the TGI [51] was > 100 µM. For the same compound, the TGI [52] was > 100 µM and the TGI [53] was > 100 µM.
With `CN1c2ccccc2NC(CC(=O)O)C2CC=CN21` (stereo not given) the TGI [1] was > 100 µM, the TGI [54] was > 100 µM and the TGI [2] was > 100 µM. The TGI [3] was > 100 µM, the TGI [4] was > 100 µM and the TGI [5] was > 100 µM. For the same compound, the TGI [6] was > 100 µM, the TGI [8] was > 100 µM and the TGI [55] was > 100 µM. For the same compound, the TGI [9] was > 100 µM, the TGI [11] was > 100 µM and the TGI [12] was > 100 µM. For the same compound, the TGI [13] was > 100 µM, the TGI [14] was > 100 µM and the TGI [15] was > 100 µM. For the same compound, the TGI [16] was > 100 µM, the TGI [17] was > 100 µM and the TGI [18] was > 100 µM. The TGI [19] was > 100 µM, the TGI [20] was > 100 µM and the TGI [56] was > 100 µM. For the same compound, the TGI [21] was > 100 µM, the TGI [22] was > 100 µM and the TGI [23] was > 100 µM. For the same compound, the TGI [24] was > 100 µM, the TGI [25] was > 100 µM and the TGI [27] was > 100 µM. For the same compound, the TGI [28] was > 100 µM, the TGI [29] was > 100 µM and the TGI [30] was > 100 µM. The TGI [31] was > 100 µM, the TGI [57] was > 100 µM and the TGI [32] was > 100 µM. The TGI [33] was > 100 µM, the TGI [34] was > 100 µM and the TGI [35] was > 100 µM. For the same compound, the TGI [36] was > 100 µM, the TGI [37] was > 100 µM and the TGI [38] was > 100 µM. For the same compound, the TGI [39] was > 100 µM, the TGI [40] was > 100 µM and the TGI [41] was > 100 µM. The TGI [42] was > 100 µM, the TGI [43] was > 100 µM and the TGI [44] was > 100 µM. The TGI [45] was > 100 µM, the TGI [47] was > 100 µM and the TGI [48] was > 100 µM. The TGI [49] was > 100 µM, the TGI [50] was > 100 µM and the TGI [51] was > 100 µM. The TGI [52] was > 100 µM and the TGI [53] was > 100 µM.
For `COc1ccc(OC)c2[nH]c(Sc3c([N+](=O)[O-])ncn3C)nc12`, the TGI [1] was > 100 µM, the TGI [54] was 97.3 µM and the TGI [2] was > 100 µM. For the same compound, the TGI [3] was > 100 µM, the TGI [4] was 42.6 µM and the TGI [6] was 26.6 µM. The TGI [7] was 48.8 µM, the TGI [8] was 35.1 µM and the TGI [55] was 41.3 µM. For the same compound, the TGI [9] was 51.2 µM, the TGI [58] was 38.4 µM and the TGI [10] was 51.6 µM. For the same compound, the TGI [11] was 38.8 µM, the TGI [14] was > 100 µM and the TGI [15] was 44.4 µM. The TGI [16] was > 100 µM, the TGI [17] was 85.7 µM and the TGI [19] was > 100 µM. The TGI [20] was 60.6 µM, the TGI [56] was > 100 µM and the TGI [21] was 27.3 µM. It also gave a TGI [22] of 88.3 µM, a TGI [23] of 50.2 µM and a TGI [24] of 29.3 µM. For the same compound, the TGI [26] was 47.4 µM, the TGI [27] was 51.9 µM and the TGI [28] was > 100 µM. For the same compound, the TGI [30] was 45.6 µM, the TGI [31] was 64.7 µM and the TGI [57] was > 100 µM. It also gave a TGI [32] of 50.1 µM, a TGI [34] of 60.1 µM and a TGI [35] of 35.9 µM. For the same compound, the TGI [36] was 68.6 µM, the TGI [37] was > 100 µM and the TGI [38] was 34.2 µM. For the same compound, the TGI [40] was 54.6 µM, the TGI [41] was 35.4 µM and the TGI [42] was > 100 µM. For the same compound, the TGI [43] was 37.8 µM, the TGI [45] was > 100 µM and the TGI [59] was > 100 µM. The TGI [47] was > 100 µM, the TGI [48] was 61.6 µM and the TGI [49] was > 100 µM. The TGI [50] was 30.1 µM, the TGI [51] was 34.1 µM and the TGI [52] was 93.5 µM. It also gave a TGI [53] of 43.5 µM.
